From patent US20240344241A1, “PROTEINACEOUS MOLECULES AND USES THEREFOR” (THE UNIVERSITY OF QUEENSLAND, priority 2021, published 2024)
Bridge positions count the residues as written; N and C are the ends. Peptide text beside a SMILES is read from it.

Legend:
[1] = system: human whole blood, intrinsic pathway (INTEM); assay: Rotational thromboelastometry INTEM in human whole blood; conditions: 10 μM
Protocol: (§1) The anticoagulant activity of cyclic MCoFx7 was determined in human whole blood using two assays: activated clotting time (ACT) and rotational thromboelastometry (ROTEM). In ACT assays, the clotting time (y-axis) was increased in a dose-dependent manner from the control (124 s), reaching 223 s with 20 μM MCoFx7. […] Anticoagulant activity was verified by thromboelastometry (TEM) that was measured after activation of the intrinsic pathway (INTEM) (refer to FIG. 16). […] By comparison, a single concentration of cyclic [A25P]MCoFx7 (10 μM) produced a clotting time of 500 s, similar to cyclic MCoFx7 at 10 μM (469 s).
(§2) Activated clotting time (ACT) was measured in fresh whole blood using celite tubes with the Hemochron 401 coagulation analyzer (Soma Technology, Bloomfield, CT, USA). Whole blood clot formation was recorded by ROTEM® Thromboelastometry (Haemoview Diagnostics, Brisbane, Australia) using INTEM (contact factor-initiated coagulation) and HEPTEM (contact factor-initiated coagulation with heparinase) activating reagents according to the manufacturer's instructions.

[2] = system: human whole blood; assay: Activated clotting time (ACT) in human whole blood; conditions: 10 μM, human whole blood
Protocol: as §1, §2

[3] = molecular target: T1, Human β-FXIIa (Homo sapiens, UniProt P00748); assay: FXIIa competitive inhibition assay, fluorescent substrate Boc-QGR-MCA; type: biochemical
T1 construct: Human β-FXIIa was obtained from Molecular Innovations, together with human FXa, human FXIa, human α-thrombin, and human plasma kallikrein; purchased Molecular Innovations; host or cells: purified from human plasma
Source text: Cyclic [I7F]MCoFx1 (also referred to as cyclic MCoFx6) was synthesized using solid phase peptide synthesis ([[…]] [SEQ ID NO: 97]). For this inhibitor, Tyr33 was mutated back to serine as per the original mRNA display screen (FIG. 1). Cyclic MCoFx6 was screened using a competitive inhibition assay, with the substrate being changed from a colorimetric substrate (Ac-QRFR-pNA in the data of Tables 7 and 10) to a fluorescent substrate (Boc-QGR-MCA) to allow the assay to be run with a lower concentration of enzyme. The assay was performed as described for Examples 2 and 3, except that the FXIIa concentration was 0.5 nM and the substrate concentration was 50 μM (KM=187 μM).
The new variants were screened using competitive inhibition assays, with the substrate being changed from a colorimetric substrate (Ac-QRFR-pNA in the data of Tables 7 and 10) to a fluorescent substrate (Boc-QGR-MCA) to allow the assay to be run with a lower concentration of enzyme. Assays were performed as described for Examples 2 and 3, except that the FXIIa concentration was 0.5 nM and the substrate concentration was 50 μM (KM=187 μM). […] The effect of amino acid substitutions within loop 2 (Arg12, Arg13), loop 5 (Ala25, Arg27) or loop 6 (Asp34) on the activity of cyclic MCoFx7 against FXIIa was determined (refer to Table 14). […] Additionally, mutating Arg to Glu (reversing the side chain charge) only led to two-fold weaker activity. The adjacent residue Arg13 could also be mutated to Lys with no change in activity. Within loop 5, mutating Ala25 to Lys produced a slight gain in activity, whereas the Ala to Pro mutation led to a slight decrease in activity. Both mutations at Arg27 led to losses in activity in the order of two-fold (His) or 3.2-fold (Gly).
(§3) The activity of acyclic and cyclic MCoFx1-5 and analogues thereof was assessed in competitive inhibition assays, as previously described in Swedberg et al. (2016) J Med Chem, 59: 7287-7292. Human β-FXIIa was obtained from Molecular Innovations, together with human FXa, human FXIa, human α-thrombin, and human plasma kallikrein. Human cationic trypsin and human plasmin were obtained from Sigma-Aldrich, and recombinant human matriptase was sourced from R&D Systems. Recombinant human urokinase (uPA) and recombinant human tissue plasminogen activator (tPA) were expressed in Expi293 cells, as previously described in Li et al. (2019) Chembiochem, 20: 46-50. FXIIa inhibition assays were performed in clear, low-binding 96-well plates using 250 μL (final volume) of assay buffer (0.1 M Tris-HCl pH 8.0, 0.1 M NaCl, 10 mM CaCl2 and 0.005% Triton X-100). Inhibitors were serially diluted and incubated with 10 nM FXIIa at room temperature to reach equilibrium. After adding 100 μM Ac-QRFR-pNA substrate (KM=162 μM), enzymatic activity was measured by monitoring release of the pNA moiety using a TECAN infinite M1000 Pro plate reader (A=405 nm, reading interval, 10 s; assay time course, 7 min). Assays were conducted in three times in duplicate. Substrate kinetic constants (Michaelis-Menten) and inhibition constants (Morrison K) were determined by non-linear regression using Prism 7 (GraphPad). Selectivity assays with off-target proteases were performed in a similar way, except that different concentrations of enzyme and substrate were used, as indicated in Table 16. For assays using a fluorescent substrate (peptide-4-methylcoumaryl-7-amide, MCA), black low-binding 96-well plates were used and activity was measured using a TECAN infinite M1000 pro plate reader (λex 360 nm, λem 460 nm, reading interval, 30 s; assay time course, 5-30 min).

[4] = molecular target: T2, Human trypsin (Homo sapiens, UniProt P07477); assay: Trypsin competitive inhibition assay; type: biochemical
T2 construct: purchased Sigma-Aldrich; host or cells: purified from human tissue
Protocol: as §3

[5] = molecular target: T3, Human FXa (Homo sapiens, UniProt P00742); assay: FXa inhibition assay; type: biochemical
T3 construct: Human β-FXIIa was obtained from Molecular Innovations, together with human FXa, human FXIa, human α-thrombin, and human plasma kallikrein; purchased Molecular Innovations; host or cells: purified from human plasma
Protocol: as §3

[6] = molecular target: T4, Rec. human matriptase (Homo sapiens, UniProt Q9Y5Y6); assay: Matriptase inhibition assay; type: biochemical
T4 construct: purchased R&D Systems
T4 sequence (Q9Y5Y6 615-855 limits assumed): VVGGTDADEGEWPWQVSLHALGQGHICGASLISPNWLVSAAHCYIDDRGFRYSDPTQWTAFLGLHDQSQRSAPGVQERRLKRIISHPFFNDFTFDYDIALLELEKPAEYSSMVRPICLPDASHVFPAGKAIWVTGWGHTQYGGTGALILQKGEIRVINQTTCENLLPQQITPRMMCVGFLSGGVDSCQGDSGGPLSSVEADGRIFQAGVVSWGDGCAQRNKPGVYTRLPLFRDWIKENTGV
Protocol: as §3

[7] = molecular target: T5, Human thrombin (Homo sapiens, UniProt P00734); assay: Thrombin inhibition assay; type: biochemical
T5 construct: Human β-FXIIa was obtained from Molecular Innovations, together with human FXa, human FXIa, human α-thrombin, and human plasma kallikrein; purchased Molecular Innovations; host or cells: purified from human plasma
Protocol: as §3

[8] = molecular target: T6, Rec. human uPA (Homo sapiens, UniProt P00749); assay: uPA inhibition assay; type: biochemical
T6 construct: made in house; host or cells: Expi293 cells
Protocol: as §3

[9] = molecular target: T7, Rec. human tPA (Homo sapiens, UniProt P00750); assay: tPA inhibition assay; type: biochemical
T7 construct: made in house; host or cells: Expi293 cells
Protocol: as §3

[10] = Stability in human serum; conditions: human serum, 37° C., up to 24 h
Protocol: Briefly, peptides were incubated at a final concentration of 30 μM in human serum (human male AB serum, Sigma-Aldrich) at 37° C. for 0, 1, 12 and 24 h. The reaction was stopped at designated times, with the serum proteins being denatured by addition of two volumes of acetonitrile (v/v). The samples were then spun at 17,000 g for 10 min and the amount of peptide in the supernatant was quantified using analytical HPLC. The percentage of peptide remaining at 1, 12 and 24 h was calculated using the area of the serum-treated peptide peak from 0 h as 100%.

[11] = system: clotting via the extrinsic pathway; assay: Prothrombin time (PT) assay in human plasma; type: biochemical; conditions: at 10 μM
Source text: (§4) Citrated, platelet-poor plasma samples from healthy adults were collected, prepared, and stored using previously established collection protocols, such as in Zdenek et al. (2019) Toxicol in Vitro, 58: 97-109.
(§5) Standard coagulation assays were used to determine the effect of the inhibitors on the clotting time of human plasma. Activated partial thromboplastin time (aPTT) uses a Kaolin reagent (clay) to activate the intrinsic/contact pathway of the coagulation cascade, whereas prothrombin time (PT) uses Neoplastine (lyophilized thromboplastin prepared from rabbit cerebral tissue) to activate the extrinsic/tissue-factor pathway of the coagulation cascade. A minor adjustment was made to both tests (addition of 25 μL inhibitor or buffer; refer to Table 17) to accommodate the addition of an inhibitor without changing the total volume (and therefore relative ratios of additives) of the assay. Concentrations of inhibitor are reported as the concentration at the point of incubation in the assay, i.e. not taking into account the addition of the start reagent (calcium for aPTT, or Neoplastine for PT).
(§6) Clotting time (seconds) of plasma was automatically measured using a STA-R Max® analyzer (Stago, Asnieres sur Seine, France). Measurements were conducted using a viscosity-based (mechanical) detection system, whereby opposing magnets oscillate a small metal spherical pellet inside the test cuvette (250 μL total volume) until a clot is formed. Dilution of the inhibitor in Owren-Koller (OK) buffer for dose-response curves was performed automatically by the machine. Reagents were kept at 15-19° C. in the machine during experimentation and otherwise stored at 4° C. All tests were performed in triplicate.

[12] = molecular target: T8, Human plasmin (Homo sapiens, UniProt P00747); assay: Plasmin inhibition assay; type: biochemical
T8 construct: Human cationic trypsin and human plasmin were obtained from Sigma-Aldrich, and recombinant human matriptase was sourced from R&D Systems; purchased Sigma-Aldrich; host or cells: purified from human plasma
Protocol: as §3

[13] = molecular target: T1, Human β-FXIIa; assay: FXIIa competitive inhibition assay, colorimetric substrate Ac-QRFR-pNA; type: biochemical
Summary of the method: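 Assays run three times in duplicate at pH 8.0 (Tris-HCl, NaCl, CaCl2, Triton X-100). Rates of pNA or MCA release after enzyme–inhibitor equilibration at room temperature were fitted by non-linear regression to the Morrison equation for Ki.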

[14] = system: clotting via the intrinsic pathway; assay: Activated partial thromboplastin time (aPTT) assay in human plasma; type: biochemical
Source text: as §4, §5, §6

[15] = molecular target: T9, Human FXIa (Homo sapiens, UniProt P03951); assay: FXIa inhibition assay; type: biochemical
T9 construct: Human β-FXIIa was obtained from Molecular Innovations, together with human FXa, human FXIa, human α-thrombin, and human plasma kallikrein; purchased Molecular Innovations; host or cells: purified from human plasma
Protocol: as §3

[16] = molecular target: T10, Human plasma kallikrein (Homo sapiens, UniProt P03952); assay: Plasma kallikrein inhibition assay; type: biochemical
T10 construct: Human β-FXIIa was obtained from Molecular Innovations, together with human FXa, human FXIa, human α-thrombin, and human plasma kallikrein; purchased Molecular Innovations; host or cells: purified from human plasma
Protocol: as §3

T7 sequence (P00750 36-562): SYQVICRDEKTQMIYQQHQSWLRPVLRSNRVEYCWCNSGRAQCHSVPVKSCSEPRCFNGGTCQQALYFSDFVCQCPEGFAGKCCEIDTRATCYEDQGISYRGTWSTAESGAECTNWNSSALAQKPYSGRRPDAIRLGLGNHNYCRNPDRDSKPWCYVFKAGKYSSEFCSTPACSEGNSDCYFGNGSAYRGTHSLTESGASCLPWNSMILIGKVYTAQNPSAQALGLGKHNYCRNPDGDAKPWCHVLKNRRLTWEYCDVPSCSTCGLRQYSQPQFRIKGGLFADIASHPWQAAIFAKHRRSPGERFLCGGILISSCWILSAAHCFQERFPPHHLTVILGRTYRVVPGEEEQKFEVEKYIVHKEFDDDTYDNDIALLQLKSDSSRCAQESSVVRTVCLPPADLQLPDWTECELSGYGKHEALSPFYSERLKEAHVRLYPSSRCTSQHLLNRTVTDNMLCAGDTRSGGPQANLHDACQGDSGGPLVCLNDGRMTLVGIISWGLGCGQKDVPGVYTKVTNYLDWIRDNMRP
T10 sequence (P03952 391-638 limits assumed): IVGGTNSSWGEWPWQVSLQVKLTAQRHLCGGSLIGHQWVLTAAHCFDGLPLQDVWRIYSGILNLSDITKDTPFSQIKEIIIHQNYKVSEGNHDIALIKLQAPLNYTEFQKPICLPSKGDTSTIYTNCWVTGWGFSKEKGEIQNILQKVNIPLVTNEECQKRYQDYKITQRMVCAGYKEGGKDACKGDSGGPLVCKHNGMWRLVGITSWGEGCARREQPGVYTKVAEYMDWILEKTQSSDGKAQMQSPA
T10 sequence (P03952 20-390 partner limits assumed): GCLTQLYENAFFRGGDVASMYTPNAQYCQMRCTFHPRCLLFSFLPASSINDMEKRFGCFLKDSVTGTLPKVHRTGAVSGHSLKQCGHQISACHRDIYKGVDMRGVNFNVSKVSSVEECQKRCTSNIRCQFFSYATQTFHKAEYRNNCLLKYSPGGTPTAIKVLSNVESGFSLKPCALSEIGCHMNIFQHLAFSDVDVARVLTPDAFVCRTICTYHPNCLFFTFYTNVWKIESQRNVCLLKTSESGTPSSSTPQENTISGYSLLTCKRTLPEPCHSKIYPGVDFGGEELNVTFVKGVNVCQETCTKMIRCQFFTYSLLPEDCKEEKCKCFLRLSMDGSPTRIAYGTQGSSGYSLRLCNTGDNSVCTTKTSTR
T1 sequence (P00748 373-615 limits assumed, other chains not shown): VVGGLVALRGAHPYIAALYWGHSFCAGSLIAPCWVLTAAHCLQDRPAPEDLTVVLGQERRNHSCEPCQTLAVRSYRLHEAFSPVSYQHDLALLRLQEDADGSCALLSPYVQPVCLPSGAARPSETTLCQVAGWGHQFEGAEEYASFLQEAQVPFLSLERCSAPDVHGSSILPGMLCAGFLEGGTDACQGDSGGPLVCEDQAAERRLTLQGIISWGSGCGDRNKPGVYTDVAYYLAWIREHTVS
T9 sequence (P03951 388-625 limits assumed): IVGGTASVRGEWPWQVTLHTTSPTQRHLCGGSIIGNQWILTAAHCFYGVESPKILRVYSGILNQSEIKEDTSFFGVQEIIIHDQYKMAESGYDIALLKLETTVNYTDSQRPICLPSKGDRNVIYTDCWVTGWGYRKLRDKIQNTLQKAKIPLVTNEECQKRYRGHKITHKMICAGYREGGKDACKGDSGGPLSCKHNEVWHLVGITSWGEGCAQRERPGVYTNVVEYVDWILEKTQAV
T9 sequence (P03951 19-387 partner limits assumed): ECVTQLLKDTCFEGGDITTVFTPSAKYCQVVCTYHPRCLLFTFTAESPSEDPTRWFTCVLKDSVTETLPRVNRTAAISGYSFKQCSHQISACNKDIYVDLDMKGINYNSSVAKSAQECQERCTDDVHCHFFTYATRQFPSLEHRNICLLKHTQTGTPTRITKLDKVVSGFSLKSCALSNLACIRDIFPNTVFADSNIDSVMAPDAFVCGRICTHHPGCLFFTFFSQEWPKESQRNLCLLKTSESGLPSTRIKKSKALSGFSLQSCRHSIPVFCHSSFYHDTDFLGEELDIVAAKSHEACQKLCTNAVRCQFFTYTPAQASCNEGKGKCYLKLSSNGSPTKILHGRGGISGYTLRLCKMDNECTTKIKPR
T8 sequence (P00747 581-810 limits assumed): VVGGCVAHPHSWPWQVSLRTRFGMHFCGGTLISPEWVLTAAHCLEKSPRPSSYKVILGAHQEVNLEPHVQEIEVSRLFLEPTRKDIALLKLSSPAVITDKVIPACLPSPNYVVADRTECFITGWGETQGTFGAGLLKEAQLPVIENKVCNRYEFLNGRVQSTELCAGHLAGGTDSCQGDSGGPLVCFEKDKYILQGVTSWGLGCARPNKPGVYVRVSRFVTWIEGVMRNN
T8 sequence (P00747 97-580 partner limits assumed): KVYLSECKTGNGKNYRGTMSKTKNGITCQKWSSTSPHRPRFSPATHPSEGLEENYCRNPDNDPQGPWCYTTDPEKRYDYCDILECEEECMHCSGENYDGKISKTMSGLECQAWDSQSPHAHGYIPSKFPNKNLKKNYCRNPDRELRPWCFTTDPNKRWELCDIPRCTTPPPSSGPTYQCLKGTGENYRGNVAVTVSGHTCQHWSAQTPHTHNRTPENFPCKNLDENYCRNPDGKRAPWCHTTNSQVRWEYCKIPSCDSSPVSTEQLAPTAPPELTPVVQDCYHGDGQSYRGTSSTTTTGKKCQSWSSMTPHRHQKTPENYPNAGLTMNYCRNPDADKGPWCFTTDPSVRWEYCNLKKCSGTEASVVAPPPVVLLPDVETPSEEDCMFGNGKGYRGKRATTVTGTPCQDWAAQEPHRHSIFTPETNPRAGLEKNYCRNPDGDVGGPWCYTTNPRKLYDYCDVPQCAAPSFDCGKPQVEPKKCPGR
T3 sequence (P00742 235-488 limits assumed): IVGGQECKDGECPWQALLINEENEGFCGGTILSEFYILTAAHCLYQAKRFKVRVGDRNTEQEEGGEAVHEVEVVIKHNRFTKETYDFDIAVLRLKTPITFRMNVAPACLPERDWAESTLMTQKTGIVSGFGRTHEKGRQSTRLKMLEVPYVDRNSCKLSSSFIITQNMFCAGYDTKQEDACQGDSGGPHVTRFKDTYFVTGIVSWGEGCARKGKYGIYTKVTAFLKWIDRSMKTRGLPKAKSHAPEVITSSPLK
T3 sequence (P00742 41-179 partner limits assumed): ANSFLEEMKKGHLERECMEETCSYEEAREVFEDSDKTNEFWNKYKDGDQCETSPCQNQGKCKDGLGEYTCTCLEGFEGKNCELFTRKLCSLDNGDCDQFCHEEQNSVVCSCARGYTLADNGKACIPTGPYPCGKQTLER

## CC[C@H](C)[C@@H]1NC(=O)CNC(=O)CNC(=O)[C@H](CC(=O)O)NC(=O)[C@H](CO)NC(=O)CNC(=O)[C@H](CO)NC(=O)CNC(=O)[C@@H]2CSSC[C@@H]3NC(=O)[C@H](CC(=O)O)NC(=O)[C@H](CO)NC(=O)[C@H](CC(=O)O)NC(=O)[C@H](CCCNC(=N)N)NC(=O)[C@H](CCCNC(=N)N)NC(=O)[C@@H]4CSSC[C@H](NC(=O)[C@H]([C@@H](C)CC)NC(=O)[C@H](CSSC[C@H](NC1=O)C(=O)N1CCC[C@H]1C(=O)N[C@@H](CCCNC(=N)N)C(=O)N[C@@H]([C@@H](C)CC)C(=O)NCC(=O)N[C@@H](CCCNC(=N)N)C(=O)N[C@@H](CC(C)C)C(=O)N4)NC(=O)[C@H](C)NC(=O)CNC(=O)[C@@H]1CCCN1C3=O)C(=O)N[C@@H](CCCNC(=N)N)C(=O)N1CCC[C@H]1C(=O)N[C@@H]([C@@H](C)O)C(=O)N[C@@H](CCCNC(=N)N)C(=O)N[C@@H](Cc1ccccc1)C(=O)N2 [Cyclic [A25P]MCoFx7] (cyclo(ACICRPTRFCGSGSDGGICPRIGRLCRRDSDCPG); disulfide 2-19, 4-26, 10-32)
[1]
  INTEM clotting time: 500 s
[2]
  ACT clotting time: 186 s
[3]
  Ki: 0.093 ± 0.005 nM

## CC[C@H](C)[C@@H]1NC(=O)CNC(=O)CNC(=O)[C@H](CC(=O)O)NC(=O)[C@H](CO)NC(=O)CNC(=O)[C@H](CO)NC(=O)CNC(=O)[C@@H]2CSSC[C@@H]3NC(=O)[C@H](CC(=O)O)NC(=O)[C@H](CO)NC(=O)[C@H](CC(=O)O)NC(=O)[C@H](CCCNC(=N)N)NC(=O)[C@H](CCCNC(=N)N)NC(=O)[C@@H]4CSSC[C@H](NC(=O)[C@H]([C@@H](C)CC)NC(=O)[C@H](CSSC[C@H](NC1=O)C(=O)N1CCC[C@H]1C(=O)N[C@@H](CCCNC(=N)N)C(=O)N[C@@H]([C@@H](C)CC)C(=O)NCC(=O)N[C@@H](CCCNC(=N)N)C(=O)N[C@@H](CC(C)C)C(=O)N4)NC(=O)[C@H](C)NC(=O)CNC(=O)[C@@H]1CCCN1C3=O)C(=O)N[C@@H](CCCNC(=N)N)C(=O)NCC(=O)N[C@@H](CC(N)=O)C(=O)NCC(=O)N[C@@H](Cc1ccc(O)cc1)C(=O)N2 [cMCoTI-fxL1] (cyclo(ACICRGNGYCGSGSDGGICPRIGRLCRRDSDCPG); disulfide 2-19, 4-26, 10-32)
[4]
  Ki: 996 nM
[5]
  IC50: > 5000 nM
[5]; read-out: percent inhibition FXa
  inhibition at 5 µM: 0%
[6]
  Ki: 2210 nM
[7]
  IC50: > 5000 nM
[7]; read-out: percent inhibition Thrombin
  inhibition at 5 µM: 1%
[8]
  IC50: > 5000 nM
[8]; read-out: percent inhibition uPA
  inhibition at 5 µM: 0%
[9]
  IC50: > 5000 nM
[9]; read-out: percent inhibition tPA
  inhibition at 5 µM: 1%
[10]
  resistance to serum proteases (in words): highly resistant to serum proteases
[11]
  clotting time compared to control, PT assay: No significant differences in clotting time compared to control assays
[12]
  IC50: > 5000 nM
[12]; read-out: percent inhibition Plasmin
  inhibition at 5 µM: 19%
[13]
  Ki: 0.69 nM
[14]
  EC2× (concentration required to double the clotting time): 500 nM
[15]
  IC50: > 5000 nM
[15]; read-out: percent inhibition FXIa
  inhibition at 5 µM: 1%
[16]
  IC50: > 5000 nM
[16]; read-out: percent inhibition Plasma kallikrein
  inhibition at 5 µM: 0%
